Test system: yeast genes (expressed mRNA)
Experiment: DNA chip measurement of expressed mRNA of yeast genes after culture with a toxic chemical substance
Type: cell-based, Saccharomyces cerevisiae S288C
Conditions: for level of expressed mRNA in the presence of chemical substance / level in the absence of chemical substance: cultured two hours with the chemical substance; for The level of expressed mRNA in the presence of chemical substance/The level of expressed mRNA in the absence of chemical substance: cultured two hours with substance
Protocol: Yeast (Saccharomyces cerevisiae S288C (a SUC2mal mel gap2 CUP1)) were cultured at 25° C. on YPD medium (yeast extract 1%, polypeptone 2%, glucose 2%). One of toxic chemical substances was added to the cell at logarithmic growth phase, and the cell was further cultured for two hours. Cell was cultured without any chemical substance in the same condition, and was used as a control. Concentrations of the chemical substances were defined to inhibit the growth of the yeast but not lead to death.
After the completion of cultivation, the culture was centrifuged to collect the cells. To the cells, sodium acetate buffer (50 mM sodium acetate, 10 mM EDTA, 1% SDS) was added, and the mixture was shaken at 65° C. for five minutes, followed by returning to room temperature, and obtaining the supernatant, which procedure was repeated two times. To the supernatant, ½ amount of a solution of phenol/chloroform (1:1) was added, and the mixture was centrifuged to give a supernatant, an equal amount of chloroform was added, and the mixture was centrifuged to give a supernatant. To the supernatant, an equal amount of isopropanol containing 0.3 M sodium acetate was added, and the mixture was allowed to stand at room temperature for 30 minutes, after which the mixture was centrifuged to give sediment of the whole RNAs. Seventy % ethanol was added to the sediment, and the mixture was again centrifuged to give sediment, which was then dried and dissolved in water. mRNA was isolated from the whole RNAs as followings. In view of the fact that a poly A chain is attached to the 3′ terminus of mRNA, a polynucleotide having a poly T structure which was immobilized on the surface of latex beads was used to trap the mRNA, and then the mRNA was washed and eluted with spine column (Oligotex-dT30<Super>mRNA Purification Kit, Takara). Reverse transcription of the mRNA was conducted with a reverse transcriptase (Super Script II Reverse Transcriptase; catalogue No. 18064-014, GibcoBRL) using fluorescence-labeled nucleotides to give cDNAs that were introduced with Cy3-dUTP or Cy5-dUTP during the reverse transcription.
The labeled cDNAs were dissolved in TE buffer (10 mM Tris-HCl/1 mM EDTA, pH 8.0), and the solution was dropped on the DNA chip containing the whole genes of yeast (DNA Chip Research Inc. Japan) so that the cDNAs were hybridized on the DNA chip at 65° C. for over 12 hours. The fluoresces intensity of the DNA chip was read with a scanner, and the ratio relative to the fluorescence intensity resulting from the absence of chemical substance was estimated as the following, which is shown in Tables 1 to 9.
In the Tables, “Intensity” indicated in the rightmost column is a value of the level of expressed mRNA of each gene in control cells as divided by the average level of the expressions of the whole genes. A gene of which mRNA level is lower in control, and is higher in cases of addition of chemical substance, is especially useful in the detection of toxic substances.
Here, when a ratio of an amount of mRNA expressed in the presence of the chemical substance to an amount of mRNA expressed in the absence of the chemical substance is two or more, then it is considered significant.

CCCCCCCCCCCCc1ccc(S(=O)(=O)[O-])cc1.[Na+] [(17), Sodium dodecylbenzosulfonate]
1.3: The level of expressed mRNA in the presence of chemical substance/The level of expressed mRNA in the absence of chemical substance, yeast gene YLR351C (gene YLR351C, Metabolism protein genes, DNA chip fluorescence ratio) | The level of expressed mRNA in the presence of chemical substance/The level of expressed mRNA in the absence of chemical substance, yeast gene YNR072W (gene YNR072W, Metabolism protein genes, DNA chip fluorescence ratio) | The level of expressed mRNA in the presence of chemical substance/The level of expressed mRNA in the absence of chemical substance, yeast gene YOR363C (gene YOR363C, Metabolism protein genes, DNA chip fluorescence ratio) | The level of expressed mRNA in the presence of chemical substance/The level of expressed mRNA in the absence of chemical substance, yeast gene YPL134C (gene YPL134C (mitochondria-located protein gene), yeast cultured two hours with chemical substance, DNA chip fluorescence ratio to control) | The level of expressed mRNA in the presence of chemical substance/The level of expressed mRNA in the absence of chemical substance (yeast gene YBL048W)
0.8: The level of expressed mRNA in the presence of chemical substance/The level of expressed mRNA in the absence of chemical substance, yeast gene YMR293C (gene YMR293C, Metabolism protein genes, DNA chip fluorescence ratio) | The level of expressed mRNA in the presence of chemical substance/The level of expressed mRNA in the absence of chemical substance, yeast gene YNL073W (gene YNL073W (mitochondria-located protein gene), yeast cultured two hours with chemical substance, DNA chip fluorescence ratio to control) | The level of expressed mRNA in the presence of chemical substance/The level of expressed mRNA in the absence of chemical substance, yeast gene YOR316C (gene YOR316C (mitochondria-located protein gene), yeast cultured two hours with chemical substance, DNA chip fluorescence ratio to control) | The level of expressed mRNA in the presence of chemical substance/The level of expressed mRNA in the absence of chemical substance, yeast gene YPL040C (gene YPL040C (mitochondria-located protein gene), yeast cultured two hours with chemical substance, DNA chip fluorescence ratio to control) | level of expressed mRNA in the presence of chemical substance / level in the absence of chemical substance (yeast gene YBL044W) | level of expressed mRNA in the presence of chemical substance / level in the absence of chemical substance (yeast gene YCL042W)
1.8: The level of expressed mRNA in the presence of chemical substance/The level of expressed mRNA in the absence of chemical substance (yeast gene YDL204W)
1.6: The level of expressed mRNA in the presence of chemical substance/The level of expressed mRNA in the absence of chemical substance (yeast gene YDL072C)
0.9: The level of expressed mRNA in the presence of chemical substance/The level of expressed mRNA in the absence of chemical substance, yeast gene YBR298C (gene YBR298C, Metabolism protein genes, DNA chip fluorescence ratio) | The level of expressed mRNA in the presence of chemical substance/The level of expressed mRNA in the absence of chemical substance, yeast gene YGL035C (gene YGL035C, Metabolism protein genes, DNA chip fluorescence ratio) | The level of expressed mRNA in the presence of chemical substance/The level of expressed mRNA in the absence of chemical substance, yeast gene YGR062C (gene YGR062C (mitochondria-located protein gene), yeast cultured two hours with chemical substance, DNA chip fluorescence ratio to control) | The level of expressed mRNA in the presence of chemical substance/The level of expressed mRNA in the absence of chemical substance, yeast gene YJL180C (gene YJL180C (mitochondria-located protein gene), yeast cultured two hours with chemical substance, DNA chip fluorescence ratio to control) | The level of expressed mRNA in the presence of chemical substance/The level of expressed mRNA in the absence of chemical substance, yeast gene YLR295C (gene YLR295C (mitochondria-located protein gene), yeast cultured two hours with chemical substance, DNA chip fluorescence ratio to control) | The level of expressed mRNA in the presence of chemical substance/The level of expressed mRNA in the absence of chemical substance, yeast gene YMR267W (gene YMR267W (mitochondria-located protein gene), yeast cultured two hours with chemical substance, DNA chip fluorescence ratio to control) | The level of expressed mRNA in the presence of chemical substance/The level of expressed mRNA in the absence of chemical substance, yeast gene YMR267W (gene YMR267W, Metabolism protein genes, DNA chip fluorescence ratio) | The level of expressed mRNA in the presence of chemical substance/The level of expressed mRNA in the absence of chemical substance, yeast gene YOR180C (gene YOR180C, Metabolism protein genes, DNA chip fluorescence ratio) | level of expressed mRNA in the presence of chemical substance / level in the absence of chemical substance (yeast gene YAL018C) | level of expressed mRNA in the presence of chemical substance / level in the absence of chemical substance (yeast gene YAR064W) | The level of expressed mRNA in the presence of chemical substance/The level of expressed mRNA in the absence of chemical substance (yeast gene YBL107C) | level of expressed mRNA in the presence of chemical substance / level in the absence of chemical substance (yeast gene YBR124W) | The level of expressed mRNA in the presence of chemical substance/The level of expressed mRNA in the absence of chemical substance (yeast gene YDL222C)
1.4: level of expressed mRNA in the presence of chemical substance / level in the absence of chemical substance (yeast gene YBR012C)
3.2: level of expressed mRNA in the presence of chemical substance / level in the absence of chemical substance (yeast gene YBR287W)
2.6: level of expressed mRNA in the presence of chemical substance / level in the absence of chemical substance (yeast gene YCR007C)
2.1: The level of expressed mRNA in the presence of chemical substance/The level of expressed mRNA in the absence of chemical substance, yeast gene YBR036C (gene YBR036C, Metabolism protein genes, DNA chip fluorescence ratio)
1.0: The level of expressed mRNA in the presence of chemical substance/The level of expressed mRNA in the absence of chemical substance, yeast gene YGR287C (gene YGR287C, Metabolism protein genes, DNA chip fluorescence ratio) | The level of expressed mRNA in the presence of chemical substance/The level of expressed mRNA in the absence of chemical substance, yeast gene YLR375W (gene YLR375W, Metabolism protein genes, DNA chip fluorescence ratio) | The level of expressed mRNA in the presence of chemical substance/The level of expressed mRNA in the absence of chemical substance, yeast gene YMR278W (gene YMR278W, Metabolism protein genes, DNA chip fluorescence ratio) | The level of expressed mRNA in the presence of chemical substance/The level of expressed mRNA in the absence of chemical substance, yeast gene YPR184W (gene YPR184W, Metabolism protein genes, DNA chip fluorescence ratio)
1.2: The level of expressed mRNA in the presence of chemical substance/The level of expressed mRNA in the absence of chemical substance, yeast gene YDL067C (gene YDL067C (mitochondria-located protein gene), yeast cultured two hours with chemical substance, DNA chip fluorescence ratio to control) | The level of expressed mRNA in the presence of chemical substance/The level of expressed mRNA in the absence of chemical substance, yeast gene YDR387C (gene YDR387C, Metabolism protein genes, DNA chip fluorescence ratio) | The level of expressed mRNA in the presence of chemical substance/The level of expressed mRNA in the absence of chemical substance, yeast gene YOL096C (gene YOL096C, Metabolism protein genes, DNA chip fluorescence ratio) | The level of expressed mRNA in the presence of chemical substance/The level of expressed mRNA in the absence of chemical substance (yeast gene YAL053W) | level of expressed mRNA in the presence of chemical substance / level in the absence of chemical substance (yeast gene YBR066C) | level of expressed mRNA in the presence of chemical substance / level in the absence of chemical substance (yeast gene YBR162C) | level of expressed mRNA in the presence of chemical substance / level in the absence of chemical substance (yeast gene YCL056C) | level of expressed mRNA in the presence of chemical substance / level in the absence of chemical substance (yeast gene YDL046W)
1.7: level of expressed mRNA in the presence of chemical substance / level in the absence of chemical substance (yeast gene YAR047C)
1.9: The level of expressed mRNA in the presence of chemical substance/The level of expressed mRNA in the absence of chemical substance, yeast gene YDR297W (gene YDR297W, Metabolism protein genes, DNA chip fluorescence ratio) | The level of expressed mRNA in the presence of chemical substance/The level of expressed mRNA in the absence of chemical substance, yeast gene YKR009C (gene YKR009C, Metabolism protein genes, DNA chip fluorescence ratio)
1.1: The level of expressed mRNA in the presence of chemical substance/The level of expressed mRNA in the absence of chemical substance, yeast gene YDL078C (gene YDL078C, Metabolism protein genes, DNA chip fluorescence ratio) | The level of expressed mRNA in the presence of chemical substance/The level of expressed mRNA in the absence of chemical substance, yeast gene YDL215C (gene YDL215C, Metabolism protein genes, DNA chip fluorescence ratio) | The level of expressed mRNA in the presence of chemical substance/The level of expressed mRNA in the absence of chemical substance, yeast gene YDR079W (gene YDR079W (mitochondria-located protein gene), yeast cultured two hours with chemical substance, DNA chip fluorescence ratio to control) | The level of expressed mRNA in the presence of chemical substance/The level of expressed mRNA in the absence of chemical substance, yeast gene YJL070C (gene YJL070C, Metabolism protein genes, DNA chip fluorescence ratio) | The level of expressed mRNA in the presence of chemical substance/The level of expressed mRNA in the absence of chemical substance, yeast gene YJL096W (gene YJL096W (mitochondria-located protein gene), yeast cultured two hours with chemical substance, DNA chip fluorescence ratio to control) | The level of expressed mRNA in the presence of chemical substance/The level of expressed mRNA in the absence of chemical substance, yeast gene YMR023C (gene YMR023C (mitochondria-located protein gene), yeast cultured two hours with chemical substance, DNA chip fluorescence ratio to control) | level of expressed mRNA in the presence of chemical substance / level in the absence of chemical substance (yeast gene YDR090C)

From US20100041089A1, “IMPROVED METHOD FOR DETECTING CHEMICAL […]” (priority 2006, published 2010)
